Data on 44 molecules can be found in US8674096B2, “Substituted imidazo[1,5-a]quinoxalin-4-ones as phosphodiesterase 9 inhibitors” (priority 2009, dated 2014).

The target of one data set is T1, PDE9 (Homo sapiens, UniProt O76083).
T1 construct: made in house
Put plainly: PDE9-inhibiting activity (SPA, 3H-cGMP degradation). It counts as biochemical. The method, then:
The PDE9 used in the present experiment was expressed/purified by the method as in, for example, Guipponi et al., and Fisher et., al. (Fisher, D. A., et al., J. Biol. Chem., 273: pp. 15559-15564 (1998), Guipponi, M., et al., Hum. Genet., 103: pp. 386-392 (1998)).
The PDE9-inhibiting activity was measured by the following method. That is, to a buffer solution containing tris(hydroxymethyl)aminomethane-hydrochloric acid (40 mM, pH 8.0), magnesium chloride (5 mM), and 2-mercaptoethanol (4 mM) were added cGMP (1 μM) and ^3H-cGMP (0.33 μCi/ml) to give a substrate buffer solution. A test substance solution and an enzyme solution which had been adjusted to an optimal concentration were added thereto to perform a reaction at 30° C. The enzyme reaction was stopped by the addition of Scintillation Proximity Assay (SPA) Beads (GE Healthcare, UK) containing 5 mM 3-isobutyl-1-methylxanthine (IBMX). For the enzyme activity, the amount of 5′-GMP, which is a reaction degradation product bound to SPA beads, was measured with a TopCount microplate reader (Hewlett Packard, USA).
The inhibitory rate was calculated by taking the radioactivity of the control containing no test substance as (A), taking the radioactivity of the blank containing no enzyme as (B), and taking the radioactivity of the test substance as (C), and using the following equation. Inhibitory rate=100−{(C)−(B)/(A)−(B)}×100(%)

T1 sequence (O76083 whole entry): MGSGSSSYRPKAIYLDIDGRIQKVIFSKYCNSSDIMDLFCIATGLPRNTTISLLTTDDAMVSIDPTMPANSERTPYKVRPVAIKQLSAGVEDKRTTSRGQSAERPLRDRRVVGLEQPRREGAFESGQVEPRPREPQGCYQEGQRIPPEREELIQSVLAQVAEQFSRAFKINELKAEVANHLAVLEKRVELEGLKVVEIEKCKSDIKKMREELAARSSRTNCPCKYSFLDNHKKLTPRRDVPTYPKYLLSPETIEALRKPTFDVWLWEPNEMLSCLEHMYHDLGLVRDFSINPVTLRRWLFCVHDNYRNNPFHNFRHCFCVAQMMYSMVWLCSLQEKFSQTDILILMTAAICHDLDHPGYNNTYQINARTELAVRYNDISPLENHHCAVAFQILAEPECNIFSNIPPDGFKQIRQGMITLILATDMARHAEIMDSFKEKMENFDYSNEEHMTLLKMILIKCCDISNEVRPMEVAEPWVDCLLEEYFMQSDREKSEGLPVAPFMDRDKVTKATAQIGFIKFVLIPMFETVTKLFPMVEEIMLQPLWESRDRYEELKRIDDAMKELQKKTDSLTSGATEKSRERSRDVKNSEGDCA

For orientation: melting point means the temperature, or range, at which the solid turns liquid. On to `Cl.O=C(c1cc2[nH]c(=O)c3cnc(C4CCOCC4)n3c2cc1C1CC1)N1Cc2ccccc2C1`, for which the melting point is 185 to 189 °C (dec.). Still for that read-out and setting: as for `COc1cc2c(cc1C(=O)N1CCc3cc(C)cnc31)[nH]c(=O)c1cnc(C3CCOCC3)n12`, the figure is 288 °C (dec.); as for `Cc1cc2c(cc1C(=O)N1CCc3cc(Cl)ccc31)[nH]c(=O)c1cnc([C@H]3CC[C@H](O)CC3)n12.Cl`, 207 to 209 °C; as for `Cc1cc2c(cc1C(=O)N1CCc3cc(Cl)ccc31)[nH]c(=O)c1nnc(CC3CC3)n12`, 303 to 305 °C. For `COc1cc2c(cc1C(=O)N1CCOC(c3ccccc3)C1)[nH]c(=O)c1cnc(C3CCCCC3)n12.Cl` (centres unmarked), the melting point lay in the range of 182 to 186 °C.

Regarding `Cc1cc2c(cc1C(=O)N1CCc3c(Cl)cccc3C1)[nH]c(=O)c1nnc(C3CCOCC3)n12`, the melting point was 269 °C (dec.). Turning to `Cc1cc2c(cc1C(=O)N1Cc3ccccc3C1)[nH]c(=O)c1nnc([C@@H]3CCC[C@@H]3O)n12` (racemic), the melting point was 316 °C (dec.). The same measure, in the same setting: as for `Cc1cc2c(cc1C(=O)N1Cc3ccccc3C1)[nH]c(=O)c1cnc([C@@H]3CCC[C@@H]3O)n12` (racemic), the figure is 301 to 302 °C (dec.); as for `Cc1cc2c(cc1C(=O)N1CCc3cc(Cl)ccc31)[nH]c(=O)c1cnc([C@@H]3CCC[C@@H]3O)n12` (racemic) [Example 343], 238 to 240 °C. A word on the IC50: it is the concentration needed to halve the response being measured. As for `Cc1cc2c(cc1C(=O)N1CCc3ccccc31)[nH]c(=O)c1cnc(C3CCCC3)n12` [Example 3, 1-cyclopentyl-7-(2,3-dihydro-1H-indol-1-ylcarbonyl)-8-methylimidazo[1,5-a]quinoxalin-4(5H)-one], the melting point is 291 °C (dec.). Also, the IC50 against PDE9 came out at 6.7 nM. On the same counts, the results for `O=C(c1ccc2c(c1)[nH]c(=O)c1nnc(-c3ccc(O)cc3)n12)N1CCc2c(Cl)cccc2C1` [Example 4, 7-[(5-chloro-3,4-dihydroisoquinolin-2(1H)-yl)carbonyl]-1-(4-hydroxyphenyl)[1,2,4]triazolo[4,3-a]quinoxalin-4(5H)-one] are 373 °C (dec.) and 19 nM.

`Cc1cc2c(cc1C(=O)N1CCc3ccccc3C1c1ccncc1)[nH]c(=O)c1nnc(-c3ccc(O)c(Cl)c3)n12` (centres unmarked) [Example 5, 1-(3-chloro-4-hydroxyphenyl)-8-methyl-7-[(1-pyridin-4-yl-3,4-dihydroisoquinolin-2(1H)-yl)carbonyl][1,2,4]triazolo[4,3-a]quinoxalin-4(5H)-one]: the IC50 at PDE9 is 2.3 nM. Regarding `Cc1cc2c(cc1C(=O)N1CCc3cc(Cl)ccc31)[nH]c(=O)c1nnc(C(F)C3CC3)n12.Cl` (centres unmarked) [Example 11, 7-[(5-chloro-2,3-dihydro-1H-indol-1-yl)carbonyl]-1-[cyclopropyl(fluoro)methyl]-8-methyl[1,2,4]triazolo[4,3-a]quinoxalin-4(5H)-one], the melting point was 309 to 311 °C. Moreover, it took 3.1 nM to reach half-maximal inhibition against PDE9 (IC50). The like results for `Cc1cc2c(cc1C(=O)N1CCc3cc(F)ccc31)[nH]c(=O)c1nnc(C3CCC(F)(F)CC3)n12.Cl` [Example 13, 1-(4,4-difluorocyclohexyl)-7-[(5-fluoro-2,3-dihydro-1H-indol-1-yl)carbonyl]-8-methyl[1,2,4]triazolo[4,3-a]quinoxalin-4(5H)-one hydrochloride] were, in that order, 220 °C (dec.) and 22 nM. Consider `Cc1cc2c(cc1C(=O)N1Cc3ccccc3C1)[nH]c(=O)c1cnc(C3CCOCC3)n12` [Example 27], for which the melting point is 312 °C (dec.). This molecule displayed an IC50 against PDE9 of 18 nM. The like results for `Cc1cc2c(cc1C(=O)N1CCc3sccc3C1)[nH]c(=O)c1cnc(C3CCOCC3)n12.Cl` [Example 35] were, in that order, 283 to 285 °C and 12 nM. For the molecule `COC(=O)c1cccc2c1CN(C(=O)c1cc3[nH]c(=O)c4cnc(C5CCOCC5)n4c3cc1C)CC2.Cl` [Example 68], the melting point lay in the range of 192 to 194 °C. The same molecule gave an IC50 against PDE9 of 3.5 nM. On to `Cc1cc2c(cc1C(=O)N1CCc3nc4ncccc4cc3C1)[nH]c(=O)c1cnc(C3CCOCC3)n12` [Example 71], for which the IC50 at PDE9 was determined as 9.2 nM. `Cc1cc2c(cc1C(=O)N1CCc3cc(F)ccc31)[nH]c(=O)c1cnc(C3CCOCC3)n12.Cl` [Example 76]: the melting point is 297 to 298 °C. The molecule also came in with an IC50 on PDE9 of 2.5 nM. `Cc1cc2c(cc1C(=O)N1CCc3cc(Cl)ccc31)[nH]c(=O)c1cnc(C3CCOCC3)n12.Cl` [Example 77] showed a melting point of 265 to 266 °C. The molecule also returned an IC50 on PDE9 of 1 nM. Molecule `Cc1cc2c(cc1C(=O)N1CCc3cc(S(=O)(=O)N(C)C)ccc31)[nH]c(=O)c1cnc(C3CCOCC3)n12.Cl` [Example 80] returned a melting point of 209 to 212 °C. At PDE9, this molecule displayed an IC50 of 2.6 nM.

On to `Cc1cc2c(cc1C(=O)N1CCc3c(Cl)cccc3C1)[nH]c(=O)c1nnc(C3CCCC3)n12` [Example 91], for which the melting point was in the range of 236 to 237 °C. On PDE9, the IC50 worked out at 20 nM. `Cc1cc2c(cc1C(=O)N1Cc3ccccc3C1)[nH]c(=O)c1nnc(C3CCOCC3)n12` [Example 93]: the melting point is 305 °C (dec.). Further, at PDE9, the IC50 was 15 nM. As for `Cc1cc2c(cc1C(=O)N1Cc3ccc(Cl)cc3C1)[nH]c(=O)c1cnc(C3CCOCC3)n12.Cl` [Example 103], the melting point lay in the range of 210 to 214 °C. Besides, on PDE9, the IC50 amounted to 11 nM. Molecule `CCCc1nnc2c(=O)[nH]c3cc(C(=O)N(C)Cc4cccc(Cl)c4)ccc3n12` [Example 134] showed an IC50 against PDE9 of 950 nM. With `COc1cc2c(cc1C(=O)N1Cc3ccccc3C[C@@H]1CO)[nH]c(=O)c1cnc(C3CCCCC3)n12` [Example 220], the melting point was 215 °C (dec.). On PDE9, this molecule had an IC50 of 18 nM. `Cc1cc2c(cc1C(=O)N1CCc3cc(F)c(Cl)cc31)[nH]c(=O)c1nnc(C3CCCC3)n12.Cl` [Example 248] had a melting point of 276 to 278 °C. Half-maximal inhibition at PDE9 (IC50) was put at 5.8 nM. On to `Cl.O=C(c1cc2[nH]c(=O)c3cnc(C4CCOCC4)n3c2cc1C1CC1)N1CCc2cc(Cl)ccc21` [Example 263], for which the melting point was 339 to 342 °C (dec.). The molecule also showed an IC50 on PDE9 of 0.9 nM. Turning to `COc1cc2c(cn1)N(C(=O)c1cc3[nH]c(=O)c4cnc(C5CCOCC5)n4c3cc1OC)CC2` [Example 277], the melting point was 237 °C (dec.). On PDE9, this molecule gave an IC50 of 16 nM. Regarding `O=C(c1cc2[nH]c(=O)c3cnc(C4CCOCC4)n3c2cc1Cl)N1CCc2cccnc21` [Example 279], the melting point was 275 °C (dec.). This molecule had an IC50 against PDE9 of 10 nM.

With `Cc1cc2c(cc1C(=O)N1CCc3cc(Cl)ccc31)[nH]c(=O)c1nnc(C3CCCOC3)n12.Cl` (centres unmarked) [Example 281], the melting point was in the range of 298 to 301 °C. The molecule further registered an IC50 at PDE9 of 1.6 nM. As for `Cc1cc2c(cc1C(=O)N1CCc3cc(F)c(F)cc31)[nH]c(=O)c1nnc(C3CCCC3)n12.Cl` [Example 289], the melting point was 210 to 212 °C (dec.). At PDE9, this molecule gave an IC50 of 3.9 nM. The molecule `Cc1cc2c(cc1C(=O)N1CCc3cc(Cl)c(F)cc31)[nH]c(=O)c1cnc(C3CCOCC3)n12.Cl` [Example 290] displayed a melting point of 292 to 294 °C. Moreover, the IC50 at PDE9 turned out to be 1 nM. As to `Cc1cc2c(cc1C(=O)N1CCc3cc(Cl)c(F)cc31)[nH]c(=O)c1nnc(C3CCOCC3)n12` [Example 291], the melting point was 309 to 311 °C. The molecule further displayed an IC50 against PDE9 of 2.8 nM. The like results for `COCc1cc2c(cc1C(=O)N1CCc3cc(Cl)ccc31)[nH]c(=O)c1cnc(C3CCOCC3)n12.Cl` [Example 300] were, in that order, 298 to 301 °C (dec.) and 0.8 nM.

`Cc1cc2c(cc1C(=O)N1CCc3cc(Br)cnc31)[nH]c(=O)c1nnc(C3CCOCC3)n12` [Example 306] displayed a melting point of 222 to 223 °C. The molecule further showed an IC50 on PDE9 of 4.2 nM. In the case of `CN(C)CCOc1cc2c(cc1C(=O)N1CCc3cc(F)ccc31)[nH]c(=O)c1cnc(C3CCOCC3)n12` [Example 309], the melting point was 216 to 219 °C (dec.). Also, the concentration for half-maximal inhibition (IC50) on PDE9 amounted to 4.1 nM. As to `Cc1cc2c(cc1C(=O)N1CCc3cc(Br)cnc31)[nH]c(=O)c1nnc(C3CCOC3)n12.Cl` (centres unmarked) [Example 312], the melting point was in the range of 242 to 243 °C. For the same molecule, half-maximal inhibition at PDE9 (IC50) was put at 20 nM. As for `Cc1cc2c(cc1C(=O)N1CCc3cc(F)ccc31)[nH]c(=O)c1cnc(C3CCCOC3)n12` (centres unmarked) [Example 318], the IC50 on PDE9 is 5.9 nM. On to `COCc1cc2c(cc1C(=O)N1CCc3cc(Br)cnc31)[nH]c(=O)c1cnc(C3CCOCC3)n12.Cl` [Example 320], for which the melting point was 310 °C (dec.). The molecule also registered an IC50 against PDE9 of 1 nM. `Cc1cc2c(cc1C(=O)N1CCc3cc(Cl)c(F)cc31)[nH]c(=O)c1nnc(C3CCCC3)n12` [Example 324] had an IC50 against PDE9 of 1.7 nM. On the same count and under the same terms, to `Cc1cc2c(cc1C(=O)N1CCc3cc(Br)cnc31)[nH]c(=O)c1nnc(C3CC(F)(F)C3)n12` [Example 346] belongs 27 nM; to `Cc1cc2c(cc1C(=O)N1CCc3cc(F)cnc31)[nH]c(=O)c1nnc(C3CCOCC3)n12` [Example 352], 12 nM. On to `Cc1cc2c(cc1C(=O)N1CC(C)(C)c3cc(Cl)ccc31)[nH]c(=O)c1cnc(C3CCOCC3)n12` [Example 516], for which the IC50 on PDE9 turned out to be 0.8 nM.
